Test results from article PMC6120666 (The EMBO Journal, 2018).

Key:
Test in all cases: Drug affinity chromatography with c-ponatinib and LC-MS/MS (ponatinib interactome)
Type in all cases: binding
[1] = biological target: T1, proteins of U2OS cell lysate (Homo sapiens, UniProt P62316); conditions: captured protein SNRPD2, Rank 185
T1 construct: Proteins enriched by c-ponatinib from U2OS cell lysate; endogenous in cells; host or cells: U2OS cell lysate
In short: (§1)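 Proteins were identified by nano-UPLC–MS/MS after elution with formic acid and trypsin digestion. They were captured from U2OS lysate (2 mg protein per pulldown, NP-40 buffer) on amine-coupled NHS beads during a 2 h incubation at 4 °C.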

[2] = biological target: T2, proteins of U2OS cell lysate (Homo sapiens, UniProt Q13200); conditions: captured protein PSMD2, Rank 205
T2 construct: Proteins enriched by c-ponatinib from U2OS cell lysate; endogenous in cells; host or cells: U2OS cell lysate
In short: as §1

[3] = biological target: T3, proteins of U2OS cell lysate (Homo sapiens, UniProt A1L0T0); conditions: ILVBL, Acetolactate synthase-like protein
T3 construct: Proteins enriched by c-ponatinib from U2OS cell lysate; endogenous in cells; host or cells: U2OS cell lysate
In short: as §1

[4] = biological target: T4, proteins of U2OS cell lysate (Homo sapiens, UniProt O00231); conditions: PSMD11, 26S proteasome non-ATPase regulatory subunit 11
T4 construct: Proteins enriched by c-ponatinib from U2OS cell lysate; endogenous in cells; host or cells: U2OS cell lysate
In short: as §1

[5] = biological target: T5, proteins of U2OS cell lysate (Homo sapiens, UniProt O43143); conditions: DHX15, Putative pre-mRNA-splicing factor ATP-dependent RNA helicase DHX15
T5 construct: Proteins enriched by c-ponatinib from U2OS cell lysate; endogenous in cells; host or cells: U2OS cell lysate
T5 sequence (O43143 whole entry): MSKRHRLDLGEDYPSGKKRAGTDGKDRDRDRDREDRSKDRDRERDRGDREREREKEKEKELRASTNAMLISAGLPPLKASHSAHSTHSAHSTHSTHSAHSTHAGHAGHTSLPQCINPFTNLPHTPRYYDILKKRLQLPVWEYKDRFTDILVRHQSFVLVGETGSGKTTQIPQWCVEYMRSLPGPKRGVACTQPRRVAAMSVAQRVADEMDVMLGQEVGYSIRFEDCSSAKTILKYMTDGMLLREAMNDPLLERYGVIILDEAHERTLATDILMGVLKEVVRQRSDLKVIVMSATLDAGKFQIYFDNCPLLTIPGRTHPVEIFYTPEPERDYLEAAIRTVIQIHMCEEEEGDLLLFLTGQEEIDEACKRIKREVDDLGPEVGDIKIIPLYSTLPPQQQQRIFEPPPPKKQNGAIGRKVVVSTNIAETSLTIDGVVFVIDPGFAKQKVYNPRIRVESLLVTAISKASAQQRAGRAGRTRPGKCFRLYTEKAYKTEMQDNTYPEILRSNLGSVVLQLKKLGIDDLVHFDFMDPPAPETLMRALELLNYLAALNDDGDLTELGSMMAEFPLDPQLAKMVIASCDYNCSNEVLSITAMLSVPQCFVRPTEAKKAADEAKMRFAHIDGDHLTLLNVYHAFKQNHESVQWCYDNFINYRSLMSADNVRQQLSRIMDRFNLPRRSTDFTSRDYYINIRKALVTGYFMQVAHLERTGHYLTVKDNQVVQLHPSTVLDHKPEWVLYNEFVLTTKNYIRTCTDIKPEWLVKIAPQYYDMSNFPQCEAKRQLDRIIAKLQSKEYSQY
In short: as §1

[6] = biological target: T6, proteins of U2OS cell lysate (Homo sapiens, UniProt P05141); conditions: SLC25A5;SLC25A6;SLC25A4, ADP/ATP translocase 2
T6 construct: Proteins enriched by c-ponatinib from U2OS cell lysate; endogenous in cells; host or cells: U2OS cell lysate
In short: as §1

[7] = biological target: T7, proteins of U2OS cell lysate (Homo sapiens, UniProt P07305); conditions: H1F0, Histone H1.0
T7 construct: Proteins enriched by c-ponatinib from U2OS cell lysate; endogenous in cells; host or cells: U2OS cell lysate
T7 sequence (P07305 whole entry): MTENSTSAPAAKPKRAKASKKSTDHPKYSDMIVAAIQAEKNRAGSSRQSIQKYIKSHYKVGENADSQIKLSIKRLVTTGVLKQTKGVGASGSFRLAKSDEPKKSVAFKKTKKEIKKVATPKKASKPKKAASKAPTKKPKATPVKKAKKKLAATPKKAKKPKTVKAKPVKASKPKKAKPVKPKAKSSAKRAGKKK
In short: as §1

[8] = biological target: T8, proteins of U2OS cell lysate (Homo sapiens, UniProt P46060); conditions: RANGAP1, Ran GTPase-activating protein 1
T8 construct: Proteins enriched by c-ponatinib from U2OS cell lysate; endogenous in cells; host or cells: U2OS cell lysate
In short: as §1

[9] = biological target: T9, proteins of U2OS cell lysate (Homo sapiens, UniProt P46783); conditions: RPS10;RPS10P5, 40S ribosomal protein S10
T9 construct: Proteins enriched by c-ponatinib from U2OS cell lysate; endogenous in cells; host or cells: U2OS cell lysate
In short: as §1

[10] = biological target: T10, proteins of U2OS cell lysate (Homo sapiens, UniProt P49759); conditions: CLK1, Dual specificity protein kinase CLK1
T10 construct: Proteins enriched by c-ponatinib from U2OS cell lysate; endogenous in cells; host or cells: U2OS cell lysate
T10 sequence (P49759 whole entry): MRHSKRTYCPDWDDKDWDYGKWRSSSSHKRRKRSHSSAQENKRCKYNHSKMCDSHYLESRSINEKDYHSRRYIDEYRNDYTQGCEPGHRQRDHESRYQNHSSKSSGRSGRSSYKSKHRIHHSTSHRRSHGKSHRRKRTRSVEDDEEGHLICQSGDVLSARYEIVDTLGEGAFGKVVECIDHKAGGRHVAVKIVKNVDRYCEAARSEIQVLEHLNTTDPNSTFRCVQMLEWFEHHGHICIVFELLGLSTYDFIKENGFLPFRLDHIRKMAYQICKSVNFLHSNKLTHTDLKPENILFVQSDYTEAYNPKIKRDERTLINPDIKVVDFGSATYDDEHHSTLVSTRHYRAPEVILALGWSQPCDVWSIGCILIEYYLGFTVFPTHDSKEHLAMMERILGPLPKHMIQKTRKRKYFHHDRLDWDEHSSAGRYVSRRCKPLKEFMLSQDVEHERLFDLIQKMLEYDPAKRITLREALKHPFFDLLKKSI
In short: as §1

[11] = biological target: T11, proteins of U2OS cell lysate (Homo sapiens, UniProt P60174); conditions: TPI1, Triosephosphate isomerase
T11 construct: Proteins enriched by c-ponatinib from U2OS cell lysate; endogenous in cells; host or cells: U2OS cell lysate
In short: as §1

[12] = biological target: T12, proteins of U2OS cell lysate (Homo sapiens, UniProt P62241); conditions: RPS8, 40S ribosomal protein S8
T12 construct: Proteins enriched by c-ponatinib from U2OS cell lysate; endogenous in cells; host or cells: U2OS cell lysate
In short: as §1

[13] = biological target: T13, proteins of U2OS cell lysate (Homo sapiens, UniProt P62258); conditions: YWHAE, 14-3-3 protein epsilon
T13 construct: Proteins enriched by c-ponatinib from U2OS cell lysate; endogenous in cells; host or cells: U2OS cell lysate
In short: as §1

[14] = biological target: T14, proteins of U2OS cell lysate (Homo sapiens, UniProt Q00325); conditions: SLC25A3, Phosphate carrier protein, mitochondrial
T14 construct: Proteins enriched by c-ponatinib from U2OS cell lysate; endogenous in cells; host or cells: U2OS cell lysate
T14 sequence (Q00325 50-362): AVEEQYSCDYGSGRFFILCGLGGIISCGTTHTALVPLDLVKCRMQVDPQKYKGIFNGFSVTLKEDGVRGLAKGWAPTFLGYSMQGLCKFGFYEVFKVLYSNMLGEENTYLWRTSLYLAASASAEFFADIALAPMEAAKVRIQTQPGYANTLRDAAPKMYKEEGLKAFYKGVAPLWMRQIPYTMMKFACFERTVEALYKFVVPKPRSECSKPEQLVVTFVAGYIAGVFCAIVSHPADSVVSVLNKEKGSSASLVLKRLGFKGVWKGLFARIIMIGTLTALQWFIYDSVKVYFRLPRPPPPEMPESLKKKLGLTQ
In short: as §1

[15] = biological target: T15, proteins of U2OS cell lysate (Homo sapiens, UniProt Q13418); conditions: ILK, Integrin-linked protein kinase
T15 construct: Proteins enriched by c-ponatinib from U2OS cell lysate; endogenous in cells; host or cells: U2OS cell lysate
In short: as §1

[16] = biological target: T16, proteins of U2OS cell lysate (Homo sapiens, UniProt Q14566); conditions: MCM6, DNA replication licensing factor MCM6
T16 construct: Proteins enriched by c-ponatinib from U2OS cell lysate; endogenous in cells; host or cells: U2OS cell lysate
In short: as §1

[17] = biological target: T17, proteins of U2OS cell lysate (Homo sapiens, UniProt Q86UP2); conditions: KTN1, Kinectin
T17 construct: Proteins enriched by c-ponatinib from U2OS cell lysate; endogenous in cells; host or cells: U2OS cell lysate
In short: as §1

[18] = biological target: T18, proteins of U2OS cell lysate (Homo sapiens, UniProt Q92616); conditions: GCN1L1, Translational activator GCN1
T18 construct: Proteins enriched by c-ponatinib from U2OS cell lysate; endogenous in cells; host or cells: U2OS cell lysate
T18 sequence (Q92616 whole entry): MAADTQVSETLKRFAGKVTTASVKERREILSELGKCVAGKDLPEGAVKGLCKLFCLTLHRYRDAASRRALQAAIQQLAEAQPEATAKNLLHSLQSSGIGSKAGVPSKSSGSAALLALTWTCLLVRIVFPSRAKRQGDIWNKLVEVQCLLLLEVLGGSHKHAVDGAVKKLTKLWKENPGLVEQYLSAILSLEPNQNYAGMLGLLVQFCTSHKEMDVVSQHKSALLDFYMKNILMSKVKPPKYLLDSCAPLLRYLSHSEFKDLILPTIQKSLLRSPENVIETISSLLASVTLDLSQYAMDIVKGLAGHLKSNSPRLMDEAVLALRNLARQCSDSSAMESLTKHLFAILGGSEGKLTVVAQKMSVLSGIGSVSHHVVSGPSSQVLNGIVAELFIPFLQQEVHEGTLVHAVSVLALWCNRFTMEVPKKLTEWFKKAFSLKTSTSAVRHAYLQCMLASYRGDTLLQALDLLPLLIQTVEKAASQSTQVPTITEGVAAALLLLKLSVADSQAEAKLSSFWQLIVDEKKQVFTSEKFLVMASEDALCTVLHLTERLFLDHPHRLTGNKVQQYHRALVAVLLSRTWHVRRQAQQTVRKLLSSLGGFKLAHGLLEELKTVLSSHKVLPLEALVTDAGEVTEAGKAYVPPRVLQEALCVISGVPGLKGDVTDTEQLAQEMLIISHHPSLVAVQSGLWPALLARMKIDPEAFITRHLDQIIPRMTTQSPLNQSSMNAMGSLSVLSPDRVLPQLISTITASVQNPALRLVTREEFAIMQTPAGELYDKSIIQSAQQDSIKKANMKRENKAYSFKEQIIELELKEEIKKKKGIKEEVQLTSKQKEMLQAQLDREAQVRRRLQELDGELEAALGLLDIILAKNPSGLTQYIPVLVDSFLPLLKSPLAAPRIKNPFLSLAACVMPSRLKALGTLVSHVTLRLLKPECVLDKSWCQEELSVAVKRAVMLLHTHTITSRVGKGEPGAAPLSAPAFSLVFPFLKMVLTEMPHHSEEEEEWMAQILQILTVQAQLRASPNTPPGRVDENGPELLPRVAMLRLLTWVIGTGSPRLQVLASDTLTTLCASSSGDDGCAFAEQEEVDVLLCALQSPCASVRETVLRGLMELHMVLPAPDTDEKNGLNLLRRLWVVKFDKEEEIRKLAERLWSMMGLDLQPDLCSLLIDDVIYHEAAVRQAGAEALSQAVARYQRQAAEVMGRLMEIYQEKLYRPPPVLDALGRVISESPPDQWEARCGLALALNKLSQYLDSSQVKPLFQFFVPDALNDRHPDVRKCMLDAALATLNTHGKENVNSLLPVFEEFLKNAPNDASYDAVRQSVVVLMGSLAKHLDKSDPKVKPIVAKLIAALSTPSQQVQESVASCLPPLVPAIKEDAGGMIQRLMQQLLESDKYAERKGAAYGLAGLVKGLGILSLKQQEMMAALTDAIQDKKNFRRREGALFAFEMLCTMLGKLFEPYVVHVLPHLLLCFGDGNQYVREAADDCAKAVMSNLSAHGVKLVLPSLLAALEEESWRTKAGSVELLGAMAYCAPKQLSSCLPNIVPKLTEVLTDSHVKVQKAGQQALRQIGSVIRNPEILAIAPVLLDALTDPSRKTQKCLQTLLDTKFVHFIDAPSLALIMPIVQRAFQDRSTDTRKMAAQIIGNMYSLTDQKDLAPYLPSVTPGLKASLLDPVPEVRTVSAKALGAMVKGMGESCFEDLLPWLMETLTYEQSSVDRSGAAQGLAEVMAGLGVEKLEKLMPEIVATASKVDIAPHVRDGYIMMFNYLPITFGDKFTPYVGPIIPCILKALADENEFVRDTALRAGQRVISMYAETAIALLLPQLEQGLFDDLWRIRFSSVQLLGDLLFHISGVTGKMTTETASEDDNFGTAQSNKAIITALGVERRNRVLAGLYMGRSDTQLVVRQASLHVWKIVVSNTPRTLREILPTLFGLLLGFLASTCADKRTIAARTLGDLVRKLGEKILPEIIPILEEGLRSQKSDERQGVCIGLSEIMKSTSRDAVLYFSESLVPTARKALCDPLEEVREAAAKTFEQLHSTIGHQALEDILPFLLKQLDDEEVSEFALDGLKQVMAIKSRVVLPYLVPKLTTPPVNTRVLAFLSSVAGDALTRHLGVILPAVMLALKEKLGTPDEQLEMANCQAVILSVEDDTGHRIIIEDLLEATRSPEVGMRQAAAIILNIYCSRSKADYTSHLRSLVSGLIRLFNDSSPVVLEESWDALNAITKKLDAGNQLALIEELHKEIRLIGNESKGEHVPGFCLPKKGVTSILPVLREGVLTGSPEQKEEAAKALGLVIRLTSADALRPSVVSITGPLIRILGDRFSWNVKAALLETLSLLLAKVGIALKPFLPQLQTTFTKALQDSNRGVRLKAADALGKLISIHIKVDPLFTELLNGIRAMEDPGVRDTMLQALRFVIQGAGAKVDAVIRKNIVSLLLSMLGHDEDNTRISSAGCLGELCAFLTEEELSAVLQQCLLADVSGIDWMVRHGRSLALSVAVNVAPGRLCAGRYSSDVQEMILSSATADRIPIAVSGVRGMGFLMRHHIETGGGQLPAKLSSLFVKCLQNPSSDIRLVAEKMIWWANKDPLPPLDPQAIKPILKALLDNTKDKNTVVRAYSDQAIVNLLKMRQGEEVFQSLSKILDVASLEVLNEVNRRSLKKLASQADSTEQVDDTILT
In short: as §1

[19] = biological target: T19, proteins of U2OS cell lysate (Homo sapiens, UniProt Q96MW5); conditions: COG8, Conserved oligomeric Golgi complex subunit 8
T19 construct: Proteins enriched by c-ponatinib from U2OS cell lysate; endogenous in cells; host or cells: U2OS cell lysate
T19 sequence (Q96MW5 whole entry): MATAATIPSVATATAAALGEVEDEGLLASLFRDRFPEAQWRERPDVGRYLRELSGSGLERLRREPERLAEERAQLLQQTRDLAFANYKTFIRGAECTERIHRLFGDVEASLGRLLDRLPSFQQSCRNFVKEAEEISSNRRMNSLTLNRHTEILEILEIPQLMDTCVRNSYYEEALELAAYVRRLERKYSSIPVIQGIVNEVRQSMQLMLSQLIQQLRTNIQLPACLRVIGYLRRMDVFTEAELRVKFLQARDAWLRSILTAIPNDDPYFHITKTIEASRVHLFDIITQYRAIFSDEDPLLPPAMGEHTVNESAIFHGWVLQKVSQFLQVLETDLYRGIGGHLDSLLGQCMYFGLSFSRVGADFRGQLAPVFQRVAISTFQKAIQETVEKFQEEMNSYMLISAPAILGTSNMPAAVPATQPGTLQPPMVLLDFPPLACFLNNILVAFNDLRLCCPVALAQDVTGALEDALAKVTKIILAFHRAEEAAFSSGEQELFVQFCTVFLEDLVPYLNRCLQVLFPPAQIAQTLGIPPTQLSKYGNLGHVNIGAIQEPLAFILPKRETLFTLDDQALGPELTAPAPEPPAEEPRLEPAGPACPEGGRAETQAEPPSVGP
In short: as §1

Compound | Average LFQ intensity [1] | Average LFQ intensity [2] | Average LFQ PON_WT [3] | Average LFQ PON_WT [4] | Average LFQ PON_WT [5] | Average LFQ PON_WT [6] | Average LFQ PON_WT [7] | Average LFQ PON_WT [8] | Average LFQ PON_WT [9] | Average LFQ PON_WT [10] | Average LFQ PON_WT [11] | Average LFQ PON_WT [12] | Average LFQ PON_WT [13] | Average LFQ PON_WT [14] | Average LFQ PON_WT [15] | Average LFQ PON_WT [16] | Average LFQ PON_WT [17] | Average LFQ PON_WT [18] | Average LFQ PON_WT [19]
Cc1ccc(C(=O)Nc2ccc(CN3CCN(CCCN)CC3)c(C(F)(F)F)c2)cc1C#Cc1cnc2cccnn12 [c-ponatinib, reference compound] | 22.0908 | 21.768 |  |  |  |  |  |  |  |  |  |  |  |  |  |  |  |  | 
Cc1ccc(C(=O)Nc2ccc(CN3CCN(C)CC3)c(C(F)(F)F)c2)cc1C#Cc1cnc2cccnn12 [PON] |  |  | 23.3851 | 21.0044 | 20.8395 | 25.3771 | 21.4215 | 21.315 | 21.6692 | 19.0546 | 20.2344 | 19.8524 | 21.3893 | 23.3948 | 21.0026 | 19.2204 | 24.25 | 23.5357 | 20.9378
